Measured values taken from patent US6852756B1, “Use of pleuromutilin derivatives for transdermal treatment of bacterial diseases” (Novartis Animal Health US Inc., priority 1999, dated 2005).

Key:
[1] = Additional experiments: topical application as a spot on, tissue amounts, pigs; format: in vivo
[2] = Additional experiments: topical application as a spot on, tissue amounts, cattle; format: in vivo
[3] = test system: Bovine Digital Dermatitis; assay: Footbath / foot spray treatment of lactating cows with clinical signs of Bovine Digital Dermatitis (footrot); format: in vivo, cattle; settings: four lactating cows; footbath Day 1 and Day 3, foot spray Day 5; 10% valnemulin solution; after one week
Method: (§1) Disease: Footrot Type of administration: Footbath or directly as spray Test Protocol: Four lactating adult cows with clinical signs of Bovine Digital Dermatitis are recruited to the study. Blood and milk samples are taken before, and at intervals after application of a water/ethanol solution containing 10% valnemulin either as a footbath, or directly by spraying the feet. Footbath solutions are prepared fresh each treatment day. A calculated quantity of test product is added to an estimated volume of water, which is placed in the footbath beforehand. The cows are driven individually into the footbath and made to stand there with their feet covered by footbath solution for 2 minutes. Foot spraying involves the use of a hand operated spraying device into which 100 ml of the test product are placed. Said 100 ml are distributed between the feet of each cow and applied directly to the lower leg areas and around and underneath each foot. […]

[4] = Assessment of the systemic absorption of valnemulin after cutaneous administration (footbath / foot spray) in cattle; HPLC of blood and milk; format: in vivo; settings: lactating cows, footbath Day 1 and Day 3, foot spray Day 5, 10% valnemulin solution
Source text: as §1, with “2. Assessment of the Systemic Absorption of Valnemulin-Type of Compounds After Cutaneous Administration in Cattle” for “Disease: Footrot”, “feet. Test Formulation: Water/ethanol solution containing 10% valnemulin [table]” for “feet.”, “foot. Valnemulin content of samples is determined by a validated High Performance Liquid Chromatography (HPLC) method. Day 1; a.m. milking samples (50 ml/sample) are taken before the first treatment, thus serving as control measurements.” for “foot.”

[5] = Preliminary test: transdermal study in pigs (tissue, bile and plasma concentrations after cutaneous administration); format: in vivo; settings: 2 × 25 mg/kg of body weight
Method: 1. Preliminary Test: Transdermal Study in Pigs [table] The test solution is administered cutaneously to the skin of the animal and the […], lung, skin, bile and plasma concentrations are determined. For determining the concentrations (μg/ml of plasma or g of tissue) a calibration curve of valnemulin in plasma is used. These investigations are not meant to determine the exact values but to provide only a yes or no answer.

[6] = Animal No 1, water solution containing 10% valnemulin
[7] = Animal No 2, 40% ethanol/water solution containing 10% valnemulin

Q: Which “amounts of active ingredient found in tissues (brain, liver, muscle, spleen, lung)” value [1] does the source give for `C=C[C@]1(C)C[C@@H](OC(=O)CSC(C)(C)CNC(=O)[C@H](N)C(C)C)[C@]2(C)[C@H](C)CC[C@]3(CCC(=O)[C@H]32)[C@@H](C)[C@@H]1O` [valnemulin] here?
A: fairly high amounts

Q: What about the “amounts of active ingredient found in tissues (brain, liver, muscle, spleen, lung)” value [2] of the same molecule?
A: fairly high amounts

Q: What about the “symptoms of footrot after treatment” value [3] of the same molecule?
A: none of the treated cows shows any symptoms of footrot

Q: And the “valnemulin concentrations in blood samples” value [4]?
A: found in most milk and blood samples

Q: And the “valnemulin concentrations in milk samples” value [4]?
A: found in most milk and blood samples

Q: And the bile concentration [5, 6]?
A: 0.155 μg/ml of plasma or g of tissue

Q: What about the liver concentration [5, 6] of the same molecule?
A: 0.175 μg/ml of plasma or g of tissue

Q: And the lung concentration [5, 6]?
A: 0.916 μg/ml of plasma or g of tissue

Q: And the “plasma concentration 3 hours after 1st application” value [5, 6]?
A: <limit of detection

Q: And the “plasma concentration 6 hours after 1st application” value [5, 6]?
A: <limit of detection

Q: What about the skin concentration [5, 6] of the same molecule?
A: 39.056 μg/ml of plasma or g of tissue

Q: And the bile concentration [5, 7]?
A: <limit of detection

Q: What about the liver concentration [5, 7] of the same molecule?
A: 0.132 μg/ml of plasma or g of tissue

Q: And the lung concentration [5, 7]?
A: 0.353 μg/ml of plasma or g of tissue

Q: What about the “plasma concentration 3 hours after 1st application” value [5, 7] of the same molecule?
A: <limit of detection

Q: And the “plasma concentration 6 hours after 1st application” value [5, 7]?
A: 0.07 μg/ml of plasma or g of tissue

Q: What about the skin concentration [5, 7] of the same molecule?
A: 6.965 μg/ml of plasma or g of tissue
